Source: PubChem BioAssay AID2060613 (Molecular Pharmacology Branch, DTP, NCI, 2025)
Where “and” joins values, the source holds several entries; their conditions need not be identical. Identical values can stand only once.

Test system: 233499-124-R-J3-PDC complex spheroid viability
Assay: Anticancer human tumor 233499-124-R-J3-PDC patient-derived colon adenocarcinoma cell line growth inhibition [CLK]
Settings: for viability, T/C: stronger effect = lower value; active = viability on the fitted dose curve at most 10% of control; inactive = the rest
Summary of the method: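 Patient-derived tumor cells grown as complex spheroids with HUVEC endothelial cells and mesenchymal stem cells, treated with drug combinations. Concentrations descend in half-log steps from near clinical Cmax, or from 10 microM if Cmax unknown.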

[1] = curve of first compound, second compound 0.0316 µM
[2] = curve of first compound, second compound 0.1 µM
[3] = curve of first compound, second compound 0.316 µM
[4] = curve of first compound, second compound 1 µM
[5] = curve of first compound, second compound 3.16 µM
[6] = curve of first compound, second compound 10 µM
[7] = second compound 0.0316 µM, first compound 0.0316 µM
[8] = second compound 0.0316 µM, first compound 0.1 µM
[9] = second compound 0.0316 µM, first compound 0.316 µM
[10] = second compound 0.0316 µM, first compound 1 µM
[11] = second compound 0.0316 µM, first compound 3.16 µM
[12] = second compound 0.0316 µM, first compound 10 µM
[13] = second compound 0.1 µM, first compound 0.0316 µM
[14] = second compound 0.1 µM, first compound 0.1 µM
[15] = second compound 0.1 µM, first compound 0.316 µM
[16] = second compound 0.1 µM, first compound 1 µM
[17] = second compound 0.1 µM, first compound 3.16 µM
[18] = second compound 0.1 µM, first compound 10 µM
[19] = second compound 0.316 µM, first compound 0.0316 µM
[20] = second compound 0.316 µM, first compound 0.1 µM
[21] = second compound 0.316 µM, first compound 0.316 µM
[22] = second compound 0.316 µM, first compound 1 µM
[23] = second compound 0.316 µM, first compound 3.16 µM
[24] = second compound 0.316 µM, first compound 10 µM
[25] = second compound 1 µM, first compound 0.0316 µM
[26] = second compound 1 µM, first compound 0.1 µM
[27] = second compound 1 µM, first compound 0.316 µM
[28] = second compound 1 µM, first compound 1 µM
[29] = second compound 1 µM, first compound 3.16 µM
[30] = second compound 1 µM, first compound 10 µM
[31] = second compound 3.16 µM, first compound 0.0316 µM
[32] = second compound 3.16 µM, first compound 0.1 µM
[33] = second compound 3.16 µM, first compound 0.316 µM
[34] = second compound 3.16 µM, first compound 1 µM
[35] = second compound 3.16 µM, first compound 3.16 µM
[36] = second compound 3.16 µM, first compound 10 µM
[37] = second compound 10 µM, first compound 0.0316 µM
[38] = second compound 10 µM, first compound 0.1 µM
[39] = second compound 10 µM, first compound 0.316 µM
[40] = second compound 10 µM, first compound 1 µM
[41] = second compound 10 µM, first compound 3.16 µM
[42] = second compound 10 µM, first compound 10 µM
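Note: spheroids exposed to the drug combinations for seven days.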
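Throughout, for viability, T/C: percent viability relative to DMSO vehicle control wells taken as 100%.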

NC(=O)C(=Cn1cnc(-c2cc(C(F)(F)F)cc(C(F)(F)F)c2)n1)c1cncnc1
1120 nM and 750 nM: IC50 (curve of compound)
inactive: viability, T/C (compound 0.00949 µM) 79.8% and 85.7% | viability, T/C (compound 0.03 µM) 92.3% and 86.1% | viability, T/C (compound 0.0949 µM) 94.4% and 92.1% | viability, T/C (compound 0.3 µM) 70.9% and 61.6% | viability, T/C (compound 0.949 µM) 57.1% and 48%
19.2% and 7.79%: viability, T/C (compound 3 µM)

C=CC(=O)N1CCN(c2nc(=O)n(-c3c(C)ccnc3C(C)C)c3nc(-c4c(O)cccc4F)c(F)cc23)C(C)C1 (configuration not stated) + CN1CCN(c2cc(C(=O)Nc3cc4cc(-c5cnn(C)c5)ccc4cn3)ccn2)CC1
active: viability, T/C [25] 3.8% | viability, T/C [26] 11.4% | viability, T/C [27] 1.76% | viability, T/C [28] 2.52% | viability, T/C [29] 1.73% | viability, T/C [30] 0.3% | viability, T/C [31] 0.65% | viability, T/C [32] 0.61% | viability, T/C [33] 0.73% | viability, T/C [34] 0.79% | viability, T/C [35] 1.69% | viability, T/C [36] 1.55% | viability, T/C [37] 0.41% | viability, T/C [38] 0.38% | viability, T/C [39] 0.45% | viability, T/C [40] 0.53% | viability, T/C [41] 0.5% | viability, T/C [42] 1.01%
> 10000 nM: IC50 [1] | IC50 [2] | IC50 [3]
inactive: viability, T/C [7] 91% | viability, T/C [8] 105% | viability, T/C [9] 103% | viability, T/C [10] 102% | viability, T/C [11] 102% | viability, T/C [12] 101% | viability, T/C [13] 99.8% | viability, T/C [14] 102% | viability, T/C [15] 106% | viability, T/C [16] 99.9% | viability, T/C [17] 101% | viability, T/C [18] 108% | viability, T/C [19] 89.6% | viability, T/C [20] 103% | viability, T/C [21] 96% | viability, T/C [22] 88.5% | viability, T/C [23] 92.4% | viability, T/C [24] 82.6%
< 31.6 nM: IC50 [4] | IC50 [5] | IC50 [6]

CC(Nc1ccc2c(c1)OCCn1cc(N3C(=O)OCC3C(F)F)nc1-2)C(N)=O (configuration not stated) + CNC(=O)c1ccc(Nc2nc(OC3CCCC3)c3c(-c4ccc5nc(C)oc5c4)c[nH]c3n2)c(OC)c1
624 nM: IC50 [5]
2810 nM: IC50 [3]
1080 nM: IC50 [6]
> 10000 nM: IC50 [1]
3880 nM: IC50 [2]
inactive: viability, T/C [7] 85.3% | viability, T/C [8] 94.6% | viability, T/C [9] 81% | viability, T/C [10] 72.7% | viability, T/C [11] 65.5% | viability, T/C [12] 53.6% | viability, T/C [13] 68.9% | viability, T/C [14] 75.1% | viability, T/C [15] 72.2% | viability, T/C [16] 64.8% | viability, T/C [17] 52.9% | viability, T/C [18] 38.6% | viability, T/C [19] 66.9% | viability, T/C [20] 65.7% | viability, T/C [21] 72.2% | viability, T/C [22] 58.4% | viability, T/C [23] 49.6% | viability, T/C [24] 32.5% | viability, T/C [25] 74.8% | viability, T/C [26] 74.9% | viability, T/C [27] 50% | viability, T/C [28] 42.7% | viability, T/C [29] 45.9% | viability, T/C [30] 42.4% | viability, T/C [31] 61.3% | viability, T/C [32] 63.6% | viability, T/C [33] 56.4% | viability, T/C [34] 41.1% | viability, T/C [35] 42.3% | viability, T/C [36] 37% | viability, T/C [37] 60.8% | viability, T/C [38] 55.9% | viability, T/C [39] 68.1% | viability, T/C [40] 44.8% | viability, T/C [41] 39% | viability, T/C [42] 22.2%
316 nM: IC50 [4]

CNC(=O)c1ccc(Nc2nc(OC3CCCC3)c3c(-c4ccc5nc(C)oc5c4)c[nH]c3n2)c(OC)c1
> 10000 nM: IC50 (compound alone, run of 08/01/2023)
inactive: viability, T/C (compound 0.0316 µM) 93.9% [middle of 12 runs] | viability, T/C (compound 0.316 µM) 74% [middle of 12 runs] | viability, T/C (compound 3.16 µM) 75.3% [middle of 12 runs] | viability, T/C (compound 10 µM) 72.6% [middle of 12 runs]

COc1ccc([C@@H](O)c2cc(-c3ncnc4cc(N5CCOCC5)ccc34)c(F)cc2Cl)nn1 + CNC(=O)c1ccc(Nc2nc(OC3CCCC3)c3c(-c4ccc5nc(C)oc5c4)c[nH]c3n2)c(OC)c1
1510 nM: IC50 [4]
inactive: viability, T/C [7] 94.7% | viability, T/C [8] 89.6% | viability, T/C [9] 86.6% | viability, T/C [10] 97% | viability, T/C [11] 81.1% | viability, T/C [12] 52.8% | viability, T/C [13] 54.9% | viability, T/C [14] 65.2% | viability, T/C [15] 67.8% | viability, T/C [16] 55.8% | viability, T/C [17] 65.5% | viability, T/C [18] 63.8% | viability, T/C [19] 68.4% | viability, T/C [20] 52.1% | viability, T/C [21] 57% | viability, T/C [22] 50.2% | viability, T/C [23] 69.4% | viability, T/C [24] 41.3% | viability, T/C [25] 84.6% | viability, T/C [26] 64% | viability, T/C [27] 64.6% | viability, T/C [28] 51.1% | viability, T/C [29] 48.4% | viability, T/C [30] 37.6% | viability, T/C [31] 72.8% | viability, T/C [32] 68.9% | viability, T/C [33] 37.1% | viability, T/C [34] 55.2% | viability, T/C [35] 65.3% | viability, T/C [36] 39% | viability, T/C [37] 55.3% | viability, T/C [38] 49.2% | viability, T/C [39] 43.7% | viability, T/C [40] 46.4% | viability, T/C [41] 47.7% | viability, T/C [42] 38.9%
> 10000 nM: IC50 [1] | IC50 [2] | IC50 [3]
2680 nM: IC50 [5]
118 nM: IC50 [6]

COC1C=CCC(C)C(C)S(=O)(=O)NC(=O)c2ccc3c(c2)N(CC2CCC21)CC1(CCCc2cc(Cl)ccc21)CO3 (configuration not stated) + CNC(=O)c1ccc(Nc2nc(OC3CCCC3)c3c(-c4ccc5nc(C)oc5c4)c[nH]c3n2)c(OC)c1
113 nM: IC50 [4]
4620 nM: IC50 [1]
59.5 nM: IC50 [5]
129 nM: IC50 [6]
135 nM: IC50 [2] | IC50 [3]
active: viability, T/C [22] 9.42% | viability, T/C [23] 8.88% | viability, T/C [24] 9.03% | viability, T/C [29] 9.03% | viability, T/C [30] 6.79% | viability, T/C [35] 7% | viability, T/C [36] 7.88% | viability, T/C [40] 11.5% | viability, T/C [41] 7.72% | viability, T/C [42] 5.45%
inactive: viability, T/C [7] 90.8% | viability, T/C [8] 93.5% | viability, T/C [9] 92.5% | viability, T/C [10] 82.2% | viability, T/C [11] 71.2% | viability, T/C [12] 9.78% | viability, T/C [13] 83.2% | viability, T/C [14] 57.4% | viability, T/C [15] 29.4% | viability, T/C [16] 19% | viability, T/C [17] 33.8% | viability, T/C [18] 11.7% | viability, T/C [19] 79% | viability, T/C [20] 61% | viability, T/C [21] 19% | viability, T/C [25] 81.2% | viability, T/C [26] 51.6% | viability, T/C [27] 29.8% | viability, T/C [28] 10.1% | viability, T/C [31] 69.2% | viability, T/C [32] 33.6% | viability, T/C [33] 19.7% | viability, T/C [34] 12.3% | viability, T/C [37] 60.6% | viability, T/C [38] 59.5% | viability, T/C [39] 17.5%

CC(CO)NC(=O)c1cc(-c2ccc(Cl)cc2)nn(-c2cnn(C)c2)c1=O (configuration not stated) + CN1CCN(c2cc(C(=O)Nc3cc4cc(-c5cnn(C)c5)ccc4cn3)ccn2)CC1
< 31.6 nM: IC50 [4] | IC50 [5] | IC50 [6]
> 10000 nM: IC50 [1] | IC50 [2] | IC50 [3]
active: viability, T/C [25] 1.24% | viability, T/C [26] 1.01% | viability, T/C [27] 6.77% | viability, T/C [28] 3.75% | viability, T/C [29] 6.32% | viability, T/C [30] 0.66% | viability, T/C [31] 0.63% | viability, T/C [32] 0.7% | viability, T/C [33] 0.8% | viability, T/C [34] 0.74% | viability, T/C [35] 0.73% | viability, T/C [36] 0.73% | viability, T/C [37] 0.53% | viability, T/C [38] 0.48% | viability, T/C [39] 1.5% | viability, T/C [40] 0.55% | viability, T/C [41] 0.5% | viability, T/C [42] 0.6%
inactive: viability, T/C [7] 97.5% | viability, T/C [8] 100% | viability, T/C [9] 98.1% | viability, T/C [10] 92% | viability, T/C [11] 98.5% | viability, T/C [12] 66.4% | viability, T/C [13] 86.3% | viability, T/C [14] 112% | viability, T/C [15] 103% | viability, T/C [16] 94.2% | viability, T/C [17] 94.3% | viability, T/C [18] 80% | viability, T/C [19] 93.3% | viability, T/C [20] 94.4% | viability, T/C [21] 92.2% | viability, T/C [22] 94.8% | viability, T/C [23] 103% | viability, T/C [24] 68.9%
